Common to all, as to type: cell-based
The target of experiment [1] is T1, NMDA receptor subunits 1A/2A (Rattus norvegicus, UniProt P35439+Q00959).
T1 construct: expressed in transfected cells; host or cells: Xenopus laevis oocytes (cRNA injection; clones from Dr. P. H. Seeburg)
The experiment can be described thus: Electrophysiological assay at NMDA receptor subunits expressed in Xenopus oocytes, 1A/2A. As to conditions: glutamate 100 μm and glycine 1-100 μm. The procedure:
(§1) Many of the properties of native NMDA receptors are seen in recombinant homomeric NR1 receptors. These properties are altered by the NR2 subunits. Recombinant NMDA receptors expressed in Xenopus oocytes have been studied by voltage-clamp recording, as has developmental and regional expression of the mRNAs encoding NMDA receptor subunits. Electrophysiological assays were utilized to characterize the actions of compounds at NMDA receptors expressed in Xenopus oocytes. The compounds were assayed at four subunit combinations of cloned rat NMDA receptors, corresponding to three putative NMDA receptor subtypes [Moriyoshi, et al. Nature 1991, 354, 31-37; Monyer et al, Science 1992, 256, 1217-1221; Kutsuwada et al, Nature 1992, 358, 36-41; Sugihara et al, Biochem. Biophys Res. Commun. 1992, 185, 826-832].
(§2) Electrophysiological Assays at NMDA Receptor Subunits
(§3) Preparation of RNA. cDNA clones encoding the NR1A, NR2A, NR2B, NR2C and NR2D rat NMDA receptor subtypes were provided by Dr. P. H. Seeburg (see, Moriyoshi et al., Nature (Lond.) 354:31-37 (1991); Kutsuwada et al., Nature (Lond.) 358:36-41 (1992) Monyer et al., Science (Washington, D.C.) 256:1217-1221 (1992); Ikeda et al., FEBS Lett. 313:34-38 (1992); Ishii et al., J. Biol. Chem. 268:2836-2843 (1993) for details of these clones or their mouse homologs). The clones were transformed into appropriate host bacteria and plasmid preparations were made with conventional DNA purification techniques. A sample of each clone was linearized by restriction enzyme digestion and cRNA was synthesized with T3 RNA polymerase. The cRNA was diluted to 400 ng/μl and stored in 1 μl aliquots at -80° C. until injection.
(§4) The Xenopus oocyte expression system. Mature female Xenopus laevis were anaesthetized (20-40 min) using 0.15% 3-aminobenzoic acid ethyl ester (MS-222) and 2-4 ovarian lobes were surgically removed. Oocytes at developmental stages IV-VI (Dumont, J. N., J. Morphol. 136:153-180 (1972)), were dissected from the ovary still surrounded by enveloping ovarian tissues. Follicle-enclosed oocytes were micro-injected with 1:1 mixtures of cRNA:NR1A+NR2A, 2B, 2C or 2D; injecting ~2,5, or 20 ng of RNA encoding each receptor subunit. NR1A encoding cRNA was injected alone at ~20 ng. Oocytes were stored in Barth's medium containing (in mM):NaCl, 88; KCl, 1; CaCl2, 0.41; Ca(NO3)2, 0.33; MgSO4, 0.82 NaHCO3, 2.4; HEPES 5, pH 7.4, with 0.1 mg/ml gentamicin sulphate. While oocytes were still surrounded by enveloping ovarian tissues the Barth's medium was supplemented with 0.1% bovine serum. Oocytes were defolliculated 1-2 days following injections by treatment with collagenase (0.5 mg/ml Sigma Type I for 0.5-1 hr) (Miledi and Woodward, J. Physiol. (Lond.) 416:601-621 (1989)) and subsequently stored in serum-free medium.
(§5) Electrical recordings were made using a conventional two-electrode voltage clamp (Dagan TEV-200) over periods ranging between 3-21 days following injection. (Woodward et al., Mol. Pharmacol. 41: 89-103 (1992)). Oocytes were placed in a 0.1 ml recording chamber continuously perfused (5-15 ml min^-1 ) with frog Ringer's solution containing (in mM):NaCl, 115; KCl, 2; CaCl2, 1.8; HEPES, 5; pH 7.4. Drugs were applied by bath perfusion. Using oocytes expressing different subunit combinations of NMDA receptor, NMDA currents were activated by co-application of glutamate (100 μm) and glycine (1-100 μm). Inhibitory potency of the novel antagonists was assessed on responses elicited by fixed concentrations of glutamate and glycine, by measuring reductions in current induced by progressively increasing concentrations of antagonist. Concentration-inhibition curves were fit with equation 1.
(§6) I/Icontrol =1/(1+([antagonist]/10^-pIC50)^n) Eq. 1
(§7) in which Icontrol is the current evoked by agonists alone, pIC50 =-log IC50, IC50 is the concentration of antagonist that produces half maximal inhibition, and n is the slope factor. (De Lean et al., Am. J. Physiol. 235:E97-102 (1978)). […]

Experiment [2] has as its target T2, NMDA receptor subunits 1A/2B (Rattus norvegicus, UniProt P35439+Q00960).
T2 construct: expressed in transfected cells; host or cells: Xenopus laevis oocytes (cRNA injection; clones from Dr. P. H. Seeburg)
The experiment can be described thus: Electrophysiological assay at NMDA receptor subunits expressed in Xenopus oocytes, 1A/2B. As for the experimental part:
as §1, §2, §3, §4, §5, §6, §7

Experiment [3] deals with T3, NMDA receptor subunits 1A/2C (Rattus norvegicus, UniProt P35439+Q00961).
T3 construct: expressed in transfected cells; host or cells: Xenopus laevis oocytes (cRNA injection; clones from Dr. P. H. Seeburg)
The experiment can be described thus: Electrophysiological assay at NMDA receptor subunits expressed in Xenopus oocytes, 1A/2C. The procedure:
as §1, §2, §3, §4, §5, §6, §7

The mark [4] stands for this setting: Xenopus oocytes, glutamate 100 μm and glycine 1-100 μm, read-out: Subunits IC50, 1A/2B.
Where [5] appears, read: Xenopus oocytes, glutamate 100 μm and glycine 1-100 μm, read-out: Subunits IC50, 1A/2C.

Counter-ions that a name gives are not always drawn. Like-named read-outs stand apart in the source and are kept apart here. Bounds are passed on as bounds.

T1 sequence (Q00959 20-1464 limits assumed, other chains not shown): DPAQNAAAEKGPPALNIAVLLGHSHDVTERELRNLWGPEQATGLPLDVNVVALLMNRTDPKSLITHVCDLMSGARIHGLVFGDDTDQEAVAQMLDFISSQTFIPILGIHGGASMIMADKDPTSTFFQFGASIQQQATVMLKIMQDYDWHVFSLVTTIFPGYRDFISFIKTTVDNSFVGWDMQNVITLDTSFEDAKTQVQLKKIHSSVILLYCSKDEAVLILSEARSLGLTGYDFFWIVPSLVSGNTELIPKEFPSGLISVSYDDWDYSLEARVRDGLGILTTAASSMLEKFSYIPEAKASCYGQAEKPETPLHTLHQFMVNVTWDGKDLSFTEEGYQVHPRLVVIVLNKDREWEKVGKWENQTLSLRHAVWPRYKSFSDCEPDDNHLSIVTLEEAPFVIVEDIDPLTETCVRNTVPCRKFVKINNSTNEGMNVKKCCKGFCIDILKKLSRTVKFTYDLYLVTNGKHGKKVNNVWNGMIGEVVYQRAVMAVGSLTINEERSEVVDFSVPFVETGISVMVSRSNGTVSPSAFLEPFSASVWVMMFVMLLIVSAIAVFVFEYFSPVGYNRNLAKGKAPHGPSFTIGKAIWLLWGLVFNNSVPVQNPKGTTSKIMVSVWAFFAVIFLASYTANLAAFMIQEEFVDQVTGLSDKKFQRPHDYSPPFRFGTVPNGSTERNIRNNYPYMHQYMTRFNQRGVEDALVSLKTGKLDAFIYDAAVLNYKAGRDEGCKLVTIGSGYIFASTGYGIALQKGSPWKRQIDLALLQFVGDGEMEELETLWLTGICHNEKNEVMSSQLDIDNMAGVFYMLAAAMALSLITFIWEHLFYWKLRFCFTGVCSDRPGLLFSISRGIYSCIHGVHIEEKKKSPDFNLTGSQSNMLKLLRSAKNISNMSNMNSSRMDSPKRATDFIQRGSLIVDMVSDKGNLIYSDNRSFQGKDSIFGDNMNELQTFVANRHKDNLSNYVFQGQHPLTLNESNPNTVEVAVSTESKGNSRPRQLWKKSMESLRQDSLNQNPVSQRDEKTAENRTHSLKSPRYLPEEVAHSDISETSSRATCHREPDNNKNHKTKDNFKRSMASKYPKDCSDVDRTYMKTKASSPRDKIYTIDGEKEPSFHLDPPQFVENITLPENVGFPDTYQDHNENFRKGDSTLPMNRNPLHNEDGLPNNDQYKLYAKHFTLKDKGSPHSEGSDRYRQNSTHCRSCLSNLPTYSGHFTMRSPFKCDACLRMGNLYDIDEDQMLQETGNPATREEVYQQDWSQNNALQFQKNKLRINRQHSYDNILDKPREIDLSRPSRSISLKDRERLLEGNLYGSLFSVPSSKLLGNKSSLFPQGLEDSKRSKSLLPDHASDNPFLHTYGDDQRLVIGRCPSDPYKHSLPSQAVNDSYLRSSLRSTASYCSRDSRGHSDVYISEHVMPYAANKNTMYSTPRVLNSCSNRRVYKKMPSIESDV
T3 sequence (Q00961 20-1237, other chains not shown): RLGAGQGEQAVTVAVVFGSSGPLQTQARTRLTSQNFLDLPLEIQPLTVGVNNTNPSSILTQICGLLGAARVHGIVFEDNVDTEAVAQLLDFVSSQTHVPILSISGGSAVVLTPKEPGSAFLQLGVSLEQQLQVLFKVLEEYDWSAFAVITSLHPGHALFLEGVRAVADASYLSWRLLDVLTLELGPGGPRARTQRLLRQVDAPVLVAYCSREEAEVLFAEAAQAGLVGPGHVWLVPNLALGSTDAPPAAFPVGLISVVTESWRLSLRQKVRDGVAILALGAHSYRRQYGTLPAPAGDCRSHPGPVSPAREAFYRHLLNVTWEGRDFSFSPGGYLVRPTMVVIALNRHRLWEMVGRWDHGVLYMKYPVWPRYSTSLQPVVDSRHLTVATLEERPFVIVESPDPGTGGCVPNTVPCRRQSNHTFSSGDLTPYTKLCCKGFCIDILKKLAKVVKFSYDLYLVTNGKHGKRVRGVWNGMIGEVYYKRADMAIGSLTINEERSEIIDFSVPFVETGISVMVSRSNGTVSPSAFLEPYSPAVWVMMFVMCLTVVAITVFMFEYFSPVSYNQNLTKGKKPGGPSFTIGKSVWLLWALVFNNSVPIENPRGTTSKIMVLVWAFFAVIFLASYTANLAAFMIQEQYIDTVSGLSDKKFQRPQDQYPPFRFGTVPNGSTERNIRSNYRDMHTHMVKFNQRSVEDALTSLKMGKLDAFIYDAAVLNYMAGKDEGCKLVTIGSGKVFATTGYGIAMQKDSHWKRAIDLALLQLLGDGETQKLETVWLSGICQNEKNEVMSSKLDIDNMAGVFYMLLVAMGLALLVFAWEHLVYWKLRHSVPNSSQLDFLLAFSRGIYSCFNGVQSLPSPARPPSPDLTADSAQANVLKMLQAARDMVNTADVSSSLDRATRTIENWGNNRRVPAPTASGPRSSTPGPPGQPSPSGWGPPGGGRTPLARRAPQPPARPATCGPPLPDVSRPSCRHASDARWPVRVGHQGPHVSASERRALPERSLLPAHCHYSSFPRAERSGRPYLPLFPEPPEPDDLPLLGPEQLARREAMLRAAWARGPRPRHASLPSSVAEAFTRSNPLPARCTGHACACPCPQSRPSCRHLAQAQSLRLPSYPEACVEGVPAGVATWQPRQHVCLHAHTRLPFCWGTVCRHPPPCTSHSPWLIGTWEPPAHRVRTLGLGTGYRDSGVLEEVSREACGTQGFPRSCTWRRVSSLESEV
T2 sequence (Q00960 27-1482, other chains not shown): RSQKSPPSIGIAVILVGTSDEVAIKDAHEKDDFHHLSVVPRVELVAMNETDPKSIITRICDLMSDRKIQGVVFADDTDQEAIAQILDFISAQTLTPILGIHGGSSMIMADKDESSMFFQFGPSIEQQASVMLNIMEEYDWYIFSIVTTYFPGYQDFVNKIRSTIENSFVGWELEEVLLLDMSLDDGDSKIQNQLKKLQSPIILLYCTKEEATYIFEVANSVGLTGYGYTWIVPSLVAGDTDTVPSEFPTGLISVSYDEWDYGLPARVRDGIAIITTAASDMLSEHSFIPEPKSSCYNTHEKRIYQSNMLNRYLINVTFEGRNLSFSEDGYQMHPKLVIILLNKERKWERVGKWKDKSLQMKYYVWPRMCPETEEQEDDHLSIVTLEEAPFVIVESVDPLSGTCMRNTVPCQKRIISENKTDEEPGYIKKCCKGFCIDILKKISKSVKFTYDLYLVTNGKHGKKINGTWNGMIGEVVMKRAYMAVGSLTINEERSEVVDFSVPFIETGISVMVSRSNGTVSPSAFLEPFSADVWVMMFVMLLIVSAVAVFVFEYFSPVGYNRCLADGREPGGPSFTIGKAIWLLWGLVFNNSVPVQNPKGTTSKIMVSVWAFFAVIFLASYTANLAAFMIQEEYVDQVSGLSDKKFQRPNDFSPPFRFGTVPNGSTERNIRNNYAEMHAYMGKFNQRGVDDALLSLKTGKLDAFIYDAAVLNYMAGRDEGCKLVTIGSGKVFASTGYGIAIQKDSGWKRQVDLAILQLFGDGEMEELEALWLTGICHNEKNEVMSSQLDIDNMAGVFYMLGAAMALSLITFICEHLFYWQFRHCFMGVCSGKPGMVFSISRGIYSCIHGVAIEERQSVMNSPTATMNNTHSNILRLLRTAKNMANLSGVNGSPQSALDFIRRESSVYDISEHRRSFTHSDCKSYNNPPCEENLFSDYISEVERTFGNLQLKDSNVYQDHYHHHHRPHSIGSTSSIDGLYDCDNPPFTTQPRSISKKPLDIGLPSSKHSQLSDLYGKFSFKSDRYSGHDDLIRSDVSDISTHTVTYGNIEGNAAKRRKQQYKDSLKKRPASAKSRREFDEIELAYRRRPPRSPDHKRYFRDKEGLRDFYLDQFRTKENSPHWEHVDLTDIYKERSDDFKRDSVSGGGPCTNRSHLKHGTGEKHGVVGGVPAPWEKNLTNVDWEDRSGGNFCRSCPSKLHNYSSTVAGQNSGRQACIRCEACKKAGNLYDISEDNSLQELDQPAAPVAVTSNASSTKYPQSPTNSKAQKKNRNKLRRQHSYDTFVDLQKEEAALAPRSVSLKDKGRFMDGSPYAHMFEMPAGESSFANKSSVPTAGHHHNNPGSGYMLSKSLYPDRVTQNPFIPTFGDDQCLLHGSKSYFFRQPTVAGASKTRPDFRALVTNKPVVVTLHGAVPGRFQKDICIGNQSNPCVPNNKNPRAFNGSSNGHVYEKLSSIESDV

Take `OC(CCc1ccccc1)CN1CCC(Cc2ccccc2)CC1` (stereo not drawn) [Ex. 4, 4-Benzyl-1-[(2-hydroxy-4-phenyl)butyl]piperidine]: the IC50 is > 100 µM in experiment [1], 9 µM in experiment [2] (setting [4]) and > 100 µM in experiment [3] (setting [5]).
In the case of `c1ccc(OCCCN2CCC(c3ccccc3)CC2)cc1` [Ex. 7, 1-(3-Phenoxypropyl)-4-phenylpiperidine], the IC50 in experiment [1] is > 100 µM; in experiment [2] (setting [4]), 10 µM; in experiment [3] (setting [5]) it was > 100 µM.
For `c1ccc(OCCCCN2CCC(c3ccccc3)CC2)cc1` [Ex. 9, 1-(4-Phenoxybutyl)-4-phenylpiperidine], the results for the IC50 in experiment [1], in experiment [2] (setting [4]) and in experiment [3] (setting [5]) were > 100 µM, 10 µM and > 100 µM, respectively.
Regarding `Clc1ccc(OCCN2CCC(Cc3ccccc3)CC2)cc1` [Ex. 11, 4-Benzyl-1-(2-(4-chlorophenoxy)ethyl)piperidine hydrochloride], the IC50 in experiment [2] (setting [4]) was 10 µM; in experiment [3] (setting [5]) it was > 100 µM.
The corresponding values for `O=[N+]([O-])c1ccc(OCCN2CCC(Cc3ccccc3)CC2)cc1` [Ex. 12, 4-Benzyl-1-(2-(4-nitrophenoxy)ethyl)piperidine hydrobromide] are 6 µM and > 100 µM.
For `N#Cc1ccc(OCCN2CCC(Cc3ccccc3)CC2)cc1` [Ex. 14, 4-Benzyl-1-(2-(4-cyanophenoxy)ethyl)piperidine], the figures for the IC50 in experiment [2] (setting [4]) and in experiment [3] (setting [5]) were 3 µM and > 100 µM, respectively.
The matching figures for `CCOC(=O)Cc1cccc(OCCN2CCC(Cc3ccccc3)CC2)c1` [Ex. 17, 4-Benzyl-1-(2-(3-(ethoxycarbonylmethyl)phenoxy)ethyl)piperidine]: 3 µM and > 100 µM.
As to `NNC(=O)Cc1cccc(OCCN2CCC(Cc3ccccc3)CC2)c1` [Ex. 20, 4-Benzyl-1-(2-(3-(hydrazinocarbonylmethyl)phenoxy)ethyl)piperidine], the IC50 in experiment [1] was 5.5 µM; in experiment [2] (setting [4]) it was 0.7 µM; in experiment [3] (setting [5]), > 100 µM.
For the molecule `Clc1ccc(CC2CCN(CCOc3ccc(Cl)cc3)CC2)cc1` [Ex. 26, 4-(4-Chlorobenzyl)-1-(2-(4-chlorophenoxyethyl)piperidine hydrochloride], the IC50 is 12 µM in experiment [2] (setting [4]) and > 100 µM in experiment [3] (setting [5]).
The matching figures for `OCCc1cccc(OCCN2CCC(Cc3ccc(Cl)cc3)CC2)c1` [Ex. 29, 4-(4-Chlorobenzyl)-1-(2-(3-(2-hydroxyethyl)phenoxy)ethyl)piperidine]: 0.5 µM and > 100 µM.
For the molecule `Fc1ccc(CC2CCN(CCOc3ccc(Cl)cc3)CC2)cc1` [Ex. 34, 4-(4-Fluorobenzyl)-1-(2-(4-chlorophenoxy)ethyl)piperidine hydrochloride], the IC50 in experiment [2] (setting [4]) was 15 µM; in experiment [3] (setting [5]), > 100 µM.
The matching figures for `COc1ccc(CC2CCN(CCOc3ccc(F)cc3)CC2)cc1` [Ex. 35, 1-(2-(4-Fluorophenoxy)ethyl)-4-(4-methoxybenzyl)piperidine hydrochloride]: 4 µM and > 100 µM.
Turning to `Fc1ccc(NC2CCN(CCOc3ccc(F)cc3)CC2)cc1` [Ex. 39, 1-(2-(4-Fluorophenoxy)ethyl)-4-(N-(4-fluoroanilino)piperidine hydrochloride], the IC50 was 60 µM in experiment [2] (setting [4]) and > 100 µM in experiment [3] (setting [5]).
For `OC1CN(CCCOc2ccccc2)CCC1c1cccc(C(F)(F)F)c1` (stereo not drawn) [Ex. 46, 3-Hydroxy-1-(3-phenoxypropyl)-4-(3-trifluoromethylphenyl)piperidine hydrochloride], the values for the IC50 in experiment [2] (setting [4]) and in experiment [3] (setting [5]) were 1.5 µM and > 100 µM, respectively.
On to `OC1(Cc2ccccc2)CCN(CCCOc2ccccc2)CC1` [Ex. 48, 4-Benzyl-4-hydroxy-1-(3-phenoxypropyl)piperidine], for which the IC50 in experiment [2] (setting [4]) is 22 µM; in experiment [3] (setting [5]) it was > 100 µM.
As to `ClCCN1CCC(Cc2ccccc2)CC1` [Ex. 49, 4-Benzyl-1-(2-chloroethyl)piperidine], the IC50 in experiment [2] is 5 µM; in experiment [3] it was > 100 µM.
Consider `O=[N+]([O-])c1ccccc1OCCN1CCC(Cc2ccccc2)CC1` [Ex. 60, 4-Benzyl-1-[2-(2-nitrophenoxy)ethyl]piperidine], for which the results for the IC50 in experiment [2] (setting [4]) and in experiment [3] (setting [5]) were 6 µM and > 100 µM, respectively.
Consider `c1ccc(CC2CCN(CCOc3ncnc4ccccc34)CC2)cc1` [Ex. 66], for which the values for the IC50 in experiment [2] (setting [4]) and in experiment [3] (setting [5]) were 10 µM and > 100 µM, respectively.
The corresponding values for `COc1ccccc1OCCN1CCC(Cc2ccccc2)CC1` [Ex. 68, 4-Benzyl-1-[2-(2-methoxyphenoxy)ethyl]piperidine] are 5 µM and > 100 µM.
The corresponding values for `CC(=O)Nc1ccc(OCCN2CCC(Cc3ccccc3)CC2)cc1NC(C)=O` [Ex. 71A, 4-Benzyl-1-[2-(3,4-bisacetamidophenoxy)ethyl]piperidine] are 20 µM and > 100 µM.
The corresponding values for `Cc1nc2cc(OCCN3CCC(Cc4ccccc4)CC3)ccc2[nH]1` [Ex. 71C, 4-Benzyl-1-[2-(2-methylbenzimidazol-5-oxy)ethyl]piperidine] are 8 µM and > 100 µM.
`c1ccc(CCCN2CCC(Cc3ccccc3)CC2)cc1` [Ex. 84, 4-Benzyl-1-(3-phenylpropyl)piperidine hydrochloride]: the IC50 in experiment [2] (setting [4]) is 2.2 µM; in experiment [3] (setting [5]), > 100 µM.
The corresponding values for `OC1(Cc2ccccc2)CCN(CCCc2ccccc2)CC1` [Ex. 91, 4-Benzyl-4-hydroxy-1-(3-phenylpropyl)piperidine hydrochloride] are 22 µM and > 100 µM.
Turning to `Fc1ccc(OCCN2CCC(Cc3ccc4c(c3)CCCC4)CC2)cc1` [Ex. 140, 1-(2-(4-Fluorophenoxy)ethyl)-4-((5,6,7,8-tetrahydro-2-naphthyl)methyl)piperidine hydrochloride], the IC50 came to 80 µM in experiment [1] and 28 µM in experiment [2] (setting [4]).
Take `Oc1ccc(OCCN2CCC(Cc3ccc4ccccc4c3)CC2)cc1` [Ex. 141, 1-(2-(4-Hydroxyphenoxy)ethyl)-4-((2-naphthyl)methyl)piperidine hydrochloride]: the IC50 in experiment [2] (setting [4]) amounted to 0.1 µM; in experiment [3] (setting [5]), 90 µM.
Consider `Oc1ccccc1OCCN1CCC(Cc2ccc(F)cc2)CC1` [Ex. 158, 4-(4-Fluorobenzyl)-1-[2-(2-hydroxyphenoxy)ethyl]piperidine hydrochloride], for which the IC50 in experiment [2] (setting [4]) was determined as 0.3 µM; in experiment [3] (setting [5]), 190 µM.
The corresponding values for `Oc1ccc(OCCN2CCC(O)(Cc3ccccc3)CC2)cc1` [Ex. 164, 4-Benzyl-4-hydroxy-1-[2-(4-hydroxyphenoxy)ethyl]piperidine hydrochloride] are 0.12 µM and > 300 µM.
Turning to `Cn1c(=O)[nH]c2ccc(OCCN3CCC(Cc4ccccc4)CC3)cc21` [Ex. 193, 4-Benzyl-1-(2-(3-methyl-2-oxobenzamidazol-5-oxy)ethyl)piperidine], the IC50 is 0.2 µM in experiment [2] (setting [4]) and > 300 µM in experiment [3] (setting [5]).

The record behind these values is patent publication US6124323A, “4-substituted piperidine analogs and their use as subtype selective NMDA receptor antagonists” (Warner-Lambert Company, priority 1998, dated 2000).
